Here are results for one substance from patent publication US20180169135A1, “METHOD FOR PREVENTING TRANSPLANT FAILURE IN A HOST” (Universiteit Maastricht, priority 2015, published 2018).

In this series the target is Histon H3 (Homo sapiens, UniProt P68431).

For heparin [UFH], the “neutralization of the cytotoxic activity of Histon H3” value was “neutralize the cytotoxic activity of Histon H3”.
